Values after ≈ are worked out from the molar mass of the structure shown. Values joined by “and” are separate entries in the source; they are usually repeats but may differ in a detail not shown here. Equal values may be shown once. Where no end group is shown, it is not given here.
How the values were obtained:
human erythrocytes = test: Haemolytic activity; assay type: cell-based; details: 37 °C, 30 min; for MHC, minimum haemolytic concentration: concentration causing 10% haemolysis of hRBC, 200 μM used when no haemolysis detectable at 100 μM
Procedure: Haemolytic activity of the peptides was assayed by a standard procedure with slight modification. Fresh human erythrocytes were washed three times and resuspended at 1.25% haematocrit in PBS. Forty microlitres PBS-diluted peptide solution was added to a V-bottom 96-well plate (Corning Inc., Lowell, MA, USA), and 160 μl of erythrocytes was added. After incubation at 37 °C for 30 min, the samples were centrifuged, and the absorbance of the supernatant was measured at 450 nm using a multi-well microplate reader (SpectraMax M5; Molecular Devices, Sunnyvale, CA, USA) and compared with the 100% haemolysis caused by 0.1% Triton X-100. The percentage of haemolysis was calculated according to the equation (2): […]

Gram-positive bacteria = assay type: cell-based, S. aureus, S. epidermidis, B. subtilis; details: for TI, therapeutic index: ratio of MHC to GM
Procedure: (§1) The antimicrobial activities of the peptides, indicated by the minimum inhibitory concentrations (MIC), were determined against a range of Gram-negative (Table 3) and Gram-positive bacterial strains (Table 4). The geometric mean of MIC values (GM) from the three strains was calculated to provide an overall evaluation of antimicrobial activity.
(§2) The therapeutic index (TI) is defined as the ratio of the minimum haemolytic concentration (MHC) of peptides to the GM of peptides, and this value was used to evaluate cell selectivity of peptides towards the negatively charged region of bacterial cell membranes over the zwitterionic mammalian cell membranes.
(§3) The antibacterial activities of the peptides against three Gram-negative bacteria and three Gram-positive bacteria strains were measured using a modified version of the Clinical Laboratory and Standards Institute (CLSI) broth microdilution method as described previously. Three Gram-negative bacteria, Escherichia coli (1.8732), Pseudomonas aeruginosa (1.2421), and Klebsiella pneumonia (1.1736), and three Gram-positive bacteria, Staphylococcus aureus (1.8721), Staphylococcus epidermidis (1.4260), and Bacillus subtilis (1.3376), were purchased from the China General Microbiological Culture Collection Centre (CGMCC). Briefly, bacteria were grown in liquid LB medium (tryptone, 10 g/L, yeast extract, 5 g/L and NaCl, 10 g/L) at 37 °C to mid-log phase, and the bacteria were diluted to 1 × 10^6 colony-forming units (CFU)/ml. The peptides were serially diluted with phosphate-buffered saline (PBS), and 50 μl diluted peptides were added to 50 μl of the bacterial suspension in 96-well plate (Corning Inc., Lowell, MA, USA). After incubation at 37 °C for 18 to 20 hours, the absorbance of each well was recorded using a multi-well microplate reader (SpectraMax M5; Molecular Devices, Sunnyvale, CA, USA) at 600 nm. The lowest concentration at which the peptide inhibited complete growth of the bacteria was taken as the minimal inhibitory concentration (MIC).

Gram-negative bacteria = assay type: cell-based, E. coli, P. aeruginosa, K. pneumoniae; details: for TI, therapeutic index: ratio of MHC to GM
Procedure: as §1, §2, §3

[1] = test system: Staphylococcus aureus (1.8721); test: Antimicrobial activity, broth microdilution MIC; assay type: cell-based; details: modified CLSI broth microdilution, LB medium, 1 × 10^6 CFU/ml, 37 °C, 18 to 20 hours, absorbance 600 nm
Procedure: as §3

[2] = test system: Escherichia coli (1.8732); test: Antimicrobial activity, broth microdilution MIC; assay type: cell-based; details: modified CLSI broth microdilution, LB medium, 1 × 10^6 CFU/ml, 37 °C, 18 to 20 hours, absorbance 600 nm
Procedure: as §3

[3] = test system: Staphylococcus epidermidis (1.4260); test: Antimicrobial activity, broth microdilution MIC; assay type: cell-based; details: modified CLSI broth microdilution, LB medium, 1 × 10^6 CFU/ml, 37 °C, 18 to 20 hours, absorbance 600 nm
Procedure: as §3

[4] = test system: Bacillus subtilis (1.3376); test: Antimicrobial activity, broth microdilution MIC; assay type: cell-based; details: modified CLSI broth microdilution, LB medium, 1 × 10^6 CFU/ml, 37 °C, 18 to 20 hours, absorbance 600 nm
Procedure: as §3

[5] = test system: Pseudomonas aeruginosa (1.2421); test: Antimicrobial activity, broth microdilution MIC; assay type: cell-based; details: modified CLSI broth microdilution, LB medium, 1 × 10^6 CFU/ml, 37 °C, 18 to 20 hours, absorbance 600 nm
Procedure: as §3

[6] = test system: Klebsiella pneumonia (1.1736); test: Antimicrobial activity, broth microdilution MIC; assay type: cell-based; details: modified CLSI broth microdilution, LB medium, 1 × 10^6 CFU/ml, 37 °C, 18 to 20 hours, absorbance 600 nm
Procedure: as §3

[7] = test system: L929 mouse fibroblast cells; test: Cytotoxicity, MTT assay; assay type: cell-based; details: 50 μM peptide, 1 hour
Procedure: The toxicity of the peptides against L929 mouse fibroblast cells was assessed by a standard MTT assay. L929 mouse fibroblast cells from ATCC (Manassas, VA, USA) were maintained in our laboratory. L929 cells were cultured in RPMI 1640 supplemented with 10% (v/v) FBS, 2 mM L-glutamine, 100 U/ml penicillin and […] streptomycin and maintained in a humidified incubator with 5% CO2 at 37 °C. L929 cells (5 × 10^3cells/well) were seeded in 96-well plates (Corning Inc., Lowell, MA, USA) and incubated overnight. Diluted peptides were added to L929 cells and incubated for 1 hour. Then, 20 μl of MTT (5 mg/ml) solution was added and incubated for 4 hours. The medium was removed, and 150 μl of DMSO was added to each well to dissolve the formazan crystals. The absorbance was measured at 490 nm on a microplate reader (SpectraMax M5; Molecular Devices, Sunnyvale, CA, USA). Cell viabilities were calculated by using the equation (3): […]

[8] = 3.13 μM peptide, human erythrocytes, relative to 0.1% Triton X-100

Compound | MHC, minimum haemolytic concentration (human erythrocytes) | TI, therapeutic index (Gram-positive bacteria; Gram-positive bacteria) | TI, therapeutic index (Gram-negative bacteria; Gram-negative bacteria) | MIC S. aureus [1] [µM] | MIC E. coli [2] [µM] | MIC S. epidermidis [3] | MIC B. subtilis [4] | MIC P. aeruginosa [5] [µM] | MIC K. pneumoniae [6] [µM] | viability of treated L929 cells [7] [%] | haemolysis rate (human erythrocytes; 100 μM peptide, human erythrocytes, relative to 0.1% Triton X-100) [%] | GM, geometric mean of MIC (Gram-positive bacteria; Gram-positive strains S. aureus, S. epidermidis, B. subtilis) [µM] | Fold (Gram-positive bacteria; Table S3, TI compared with melittin, Gram-positive bacteria) | GM, geometric mean of MIC (Gram-negative bacteria; Gram-negative strains E. coli, P. aeruginosa, K. pneumoniae) [µM] | Fold (Gram-negative bacteria; Table S2, TI compared with melittin, Gram-negative bacteria) | haemolysis rate (human erythrocytes; [8]) [%] | haemolytic activity (human erythrocytes; 25 μM peptide, human erythrocytes, relative to 0.1% Triton X-100) [%]
RIGSILGRLAKGLPTLRSWIKNR-NH2 [A(A1R, A8R, I17R)] | 100 µM | 6.35 | 8 | 100 | 12.5 | 3.13 µM | 12.5 µM | 12.5 | 12.5 |  |  |  |  |  |  |  | 
RIGSILGALAKGLPTLKSWIKNR-NH2 [A(A1R, I17K)] | 100 µM | 6.35 | 5.04 | 100 | 25 | 6.25 µM | 6.25 µM | 12.5 | 25 | 6.3 |  |  |  |  |  |  | 
AIGSILGALAKGLPTLRSWIKNR-NH2 [A(I17R)] | 25 µM | 3.17 | 1.59 | 25 | 12.5 | 6.25 µM | 3.13 µM | 12.5 | 25 | 6.6 | 74 |  |  |  |  |  | 
M(G1R, V8R, I17R): melittin analogue with residues at position 1, 8 and 17 replaced by positively charged residues (RIGAVLKRLTTGLPALRSWIKRKRQQ; not fully specified; ends and bridges not checked; UniProt P01501 44-69, looked up, variant G1R V8R I17R) | 200 µM | 16 | 10.1 | 100 | 25 | 6.25 µM | 3.125 µM | 25 | 12.5 |  |  | 12.5 | 64 | 19.8 | 101 |  | 
AIGSILGRLAKGLPTLKSWIKNR-NH2 [A(A8R, I17K)] | 100 µM | 5.04 | 4 | 100 | 25 | 6.25 µM | 12.5 µM | 25 | 25 | 21.1 |  |  |  |  |  |  | 
RIGVLLARLPKLFSLFKLMGKKV-NH2 [RV-23, reference compound] | 6.25 µM | 1.26 | 1 | 12.5 | 6.25 | 3.125 µM and 3.13 µM | 3.125 µM and 3.13 µM | 6.25 | 6.25 |  |  |  |  |  |  |  | 
CC[C@H](C)[C@H](NC(=O)CN)C(=O)NCC(=O)N[C@@H](C)C(=O)N[C@H](C(=O)N[C@@H](CC(C)C)C(=O)N[C@@H](CCCCN)C(=O)N[C@H](C(=O)N[C@@H](CC(C)C)C(=O)N[C@H](C(=O)N[C@H](C(=O)NCC(=O)N[C@@H](CC(C)C)C(=O)N1CCC[C@H]1C(=O)N[C@@H](C)C(=O)N[C@@H](CC(C)C)C(=O)N[C@H](C(=O)N[C@@H](CO)C(=O)N[C@@H](Cc1c[nH]c2ccccc12)C(=O)N[C@H](C(=O)N[C@@H](CCCCN)C(=O)N[C@@H](CCCNC(=N)N)C(=O)N[C@@H](CCCCN)C(=O)N[C@@H](CCCNC(=N)N)C(=O)N[C@@H](CCC(N)=O)C(=O)N[C@@H](CCC(N)=O)C(N)=O)[C@@H](C)CC)[C@@H](C)CC)[C@@H](C)O)[C@@H](C)O)C(C)C)C(C)C [Melittin, reference compound] | 0.78 µM |  |  |  |  |  |  |  | 6.25 (≈ 17.8 µg/mL) |  |  |  |  |  |  |  | 
AIGSILGRLAKGLPTLISWIKNR-NH2 [A(A8R)] | 3.12 µM and 3.13 µM | 1 | 0.25 | 3.13 | 12.5 | 3.13 µM | 3.13 µM | 12.5 | 12.5 |  |  |  |  |  |  | 12.9 | 98.3
RIGSILGRLAKGLPTLISWIKNR-NH2 [A(A1R, A8R)] | 6.25 µM | 1 | 1 | 12.5 | 6.25 | 3.13 µM | 6.25 µM | 6.25 | 6.25 |  |  |  |  |  |  |  | 
RIGSILGALAKGLPTLISWIKNR-NH2 [A(A1R)] | 3.12 µM and 3.13 µM | 0.63 | 0.31 | 6.25 | 12.5 | 3.13 µM | 6.25 µM | 6.25 | 12.5 |  |  |  |  |  |  | 25.9 | 
